Test results taken from PubChem BioAssay (NCI).
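Cultured in 96-well plates, cells were exposed to test compound for 48 hours across five concentrations. The concentration for full growth arrest is given as TGI.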

Legend:
Assay in all cases: NCI-60 cell line screen, 48 h
[1] = system: CCRF-CEM leukemia
[2] = system: SNB-78 CNS
[3] = system: IGROV1 ovarian
[4] = system: UACC-62 melanoma
[5] = system: UACC-257 melanoma
[6] = system: ACHN renal
[7] = system: OVCAR-8 ovarian
[8] = system: A498 renal
[9] = system: HCC-2998 colon
[10] = system: UO-31 renal
[11] = system: OVCAR-3 ovarian
[12] = system: DMS 273 small cell lung
[13] = system: SK-OV-3 ovarian
[14] = system: HT29 colon
[15] = system: MOLT-4 leukemia
[16] = system: HL-60(TB) leukemia
[17] = system: SK-MEL-2 melanoma
[18] = system: SF-295 CNS
[19] = system: SF-539 CNS
[20] = system: M14 melanoma
[21] = system: DMS 114 small cell lung
[22] = system: SF-268 CNS
[23] = system: LOX IMVI melanoma
[24] = system: SN12C renal
[25] = system: SNB-75 CNS
[26] = system: KM12 colon
[27] = system: OVCAR-5 ovarian
[28] = system: KM20L2 colon
[29] = system: NCI-H522 lung
[30] = system: EKVX NSCLC
[31] = system: NCI-H460 lung
[32] = system: RPMI-8226 leukemia
[33] = system: DLD-1 colon
[34] = system: SK-MEL-28 melanoma
[35] = system: COLO 205 colon
[36] = system: CAKI-1 renal
[37] = system: SK-MEL-5 melanoma
[38] = system: RXF 393 renal
[39] = system: SNB-19 CNS
[40] = system: LXFL 529 NSCLC
[41] = system: MALME-3M melanoma
[42] = system: SW-620 colon
[43] = system: 786-0 renal
[44] = system: A549 NSCLC
[45] = system: K-562 leukemia
[46] = system: HCT-15 colon
[47] = system: XF 498 CNS
[48] = system: U251 CNS
[49] = system: NCI-H226 lung
[50] = system: HCT-116 colon
[51] = system: NCI-H23 lung
[52] = system: TK-10 renal
[53] = system: HOP-62 NSCLC
[54] = system: OVCAR-4 ovarian
[55] = system: HOP-18 NSCLC
[56] = system: SR leukemia
[57] = system: M19-MEL melanoma
[58] = system: HOP-92 NSCLC

Measured: TGI

Cc1cc(N(CCC#N)S(=O)(=O)c2ccccc2)ccc1/C=C1N=C(/C=C/c2ccccc2)OC\1=O
> 100 µM: [1] | [2] | [3] | [4] | [5] | [6] | [7] | [8] | [9] | [10] | [11] | [12] | [13] | [14] | [15] | [16] | [17] | [18] | [19] | [20] | [21] | [22] | [23] | [24] | [25] | [26] | [27] | [28] | [29] | [30] | [31] | [32] | [33] | [34] | [35] | [36] | [37] | [38] | [39] | [40] | [41] | [42] | [43] | [44] | [45] | [46] | [47] | [48] | [49] | [50] | [51] | [52] | [53]

COc1cccc(NC(=O)CC(=O)N2N=C(N(CCC#N)c3ccc(Cl)cc3)CC2c2ccccc2)c1 (stereo not given)
> 100 µM: [1] | [2] | [3] | [4] | [54] | [5] | [6] | [7] | [8] | [9] | [10] | [11] | [12] | [13] | [55] | [14] | [15] | [16] | [17] | [18] | [19] | [20] | [21] | [22] | [23] | [24] | [25] | [26] | [27] | [28] | [29] | [30] | [31] | [32] | [33] | [34] | [35] | [36] | [56] | [57] | [37] | [38] | [39] | [40] | [41] | [42] | [43] | [44] | [45] | [46] | [48] | [49] | [50] | [51] | [52] | [58] | [53]
